Measurements reported in patent US9745321B2, “Fused pyrimidine compound, intermediate, preparation method therefor, and composition and application thereof” (SHANGHAI YINGLI PHARMACEUTICAL CO., LTD, priority 2013, dated 2017).

Tests used:
[1] = molecular target: PI3Kγ (Homo sapiens (Human), UniProt P48736); assay: PI3Kγ enzyme activity inhibition IC50 evaluation assay; format: biochemical; conditions: ratio PI3Kγ vs PI3Kδ
Method: (§1) PI3Kα, PI3Kδ, PI3Kβ and PI3Kγ Enzyme Activity Inhibition IC50 Evaluation Assay
(§2) • 1. Buffer preparation: 50 mM HEPES, pH 7.5, 3 mM MgCl2, 1 mM EGTA, 100 mM NaCl, 0.03% CHAPS. • 2. Compound was formulated in 100% DMSO in a concentration gradient, and added to a 384-well plate to a final DMSO concentration of 1%. • 3. PI3Kα, PI3Kδ, PI3Kβ and PI3Kγ enzymes were diluted to an optimum concentration with the following buffer: 50 mM HEPES, pH 7.5, 3 mM MgCl2, 1 mM EGTA, 100 mM NaCl, 0.03% CHAPS, 2 mM DTT, and transferred to a 384-well plate and incubated with the compound for a certain time. • 4. Substrate was diluted to an optimum concentration with the following buffer: 50 mM HEPES, pH 7.5, 3 mM MgCl2, 1 mM EGTA, 100 mM NaCl, 0.03% CHAPS, 2 mM DTT, 50 μM PIP2, 25 μM ATP; then added to a 384-well plate to initiate the reaction, and for PI3Kα, PI3Kβ and PI3Kγ at room temperature reacted for 1 hr, for PI3Kδ at room temperature reacted for 2 hrs. For PI3Kβ and PI3Kγ, it was still necessary to further add 10 μL ADP-Glo Detection Reagent, and then equilibrated at room temperature for 30 minutes. • 5. Read Luminescense with FlexStation, and calculate the inhibition rate as the average of two tests.

[2] = molecular target: PI3Kα (Homo sapiens (Human), UniProt P42336); assay: PI3Kα enzyme activity inhibition IC50 evaluation assay; format: biochemical; conditions: ratio PI3Kα vs PI3Kδ
Sequence of PI3Kα (P42336 whole entry): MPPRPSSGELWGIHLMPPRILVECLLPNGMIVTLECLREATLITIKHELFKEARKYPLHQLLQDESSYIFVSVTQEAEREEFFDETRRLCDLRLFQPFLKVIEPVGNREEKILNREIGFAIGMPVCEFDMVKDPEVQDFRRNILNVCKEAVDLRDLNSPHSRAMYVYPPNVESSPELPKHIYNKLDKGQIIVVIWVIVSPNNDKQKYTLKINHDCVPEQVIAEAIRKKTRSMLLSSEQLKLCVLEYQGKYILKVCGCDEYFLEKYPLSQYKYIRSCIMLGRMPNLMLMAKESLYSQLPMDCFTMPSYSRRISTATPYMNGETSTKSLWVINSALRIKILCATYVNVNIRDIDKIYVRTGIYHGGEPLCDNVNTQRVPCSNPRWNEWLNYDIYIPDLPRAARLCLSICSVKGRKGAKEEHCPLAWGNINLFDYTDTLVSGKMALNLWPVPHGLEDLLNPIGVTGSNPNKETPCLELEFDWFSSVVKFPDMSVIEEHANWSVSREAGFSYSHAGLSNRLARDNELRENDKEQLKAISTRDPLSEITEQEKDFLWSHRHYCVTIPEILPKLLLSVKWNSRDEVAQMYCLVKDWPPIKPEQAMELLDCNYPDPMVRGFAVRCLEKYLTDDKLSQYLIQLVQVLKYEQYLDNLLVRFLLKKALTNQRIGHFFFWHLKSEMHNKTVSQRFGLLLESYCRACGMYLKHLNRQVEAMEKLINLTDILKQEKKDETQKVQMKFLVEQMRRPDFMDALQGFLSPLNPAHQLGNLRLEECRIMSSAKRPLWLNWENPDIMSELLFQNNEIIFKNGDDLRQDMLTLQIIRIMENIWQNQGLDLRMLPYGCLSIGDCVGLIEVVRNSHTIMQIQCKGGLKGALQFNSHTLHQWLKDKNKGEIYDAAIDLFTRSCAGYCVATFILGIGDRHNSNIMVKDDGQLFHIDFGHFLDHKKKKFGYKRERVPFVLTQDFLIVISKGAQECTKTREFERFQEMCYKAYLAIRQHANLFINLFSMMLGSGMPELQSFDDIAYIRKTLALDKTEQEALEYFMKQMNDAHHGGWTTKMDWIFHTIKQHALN
Sequence of PI3Kα (P27986 whole entry partner): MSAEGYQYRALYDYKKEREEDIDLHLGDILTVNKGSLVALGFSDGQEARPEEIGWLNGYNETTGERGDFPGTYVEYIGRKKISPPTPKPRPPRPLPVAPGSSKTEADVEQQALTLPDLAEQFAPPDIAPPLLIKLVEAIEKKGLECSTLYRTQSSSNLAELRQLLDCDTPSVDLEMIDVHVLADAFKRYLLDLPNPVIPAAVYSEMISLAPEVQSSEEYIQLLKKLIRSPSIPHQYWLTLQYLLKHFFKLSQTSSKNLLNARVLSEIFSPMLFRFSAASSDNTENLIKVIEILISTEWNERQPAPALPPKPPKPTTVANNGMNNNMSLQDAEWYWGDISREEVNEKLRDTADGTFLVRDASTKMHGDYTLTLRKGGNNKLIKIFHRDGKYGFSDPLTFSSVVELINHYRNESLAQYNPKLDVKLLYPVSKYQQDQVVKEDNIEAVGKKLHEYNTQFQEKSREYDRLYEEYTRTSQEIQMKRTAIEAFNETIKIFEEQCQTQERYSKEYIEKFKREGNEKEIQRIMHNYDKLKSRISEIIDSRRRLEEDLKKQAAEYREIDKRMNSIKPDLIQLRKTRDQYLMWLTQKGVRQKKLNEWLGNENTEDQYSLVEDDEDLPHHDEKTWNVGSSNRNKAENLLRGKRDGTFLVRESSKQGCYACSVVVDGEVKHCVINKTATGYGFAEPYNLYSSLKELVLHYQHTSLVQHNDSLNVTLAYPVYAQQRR
In short: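 Enzymes were preincubated with compound (1% DMSO final) in HEPES pH 7.5 buffer with MgCl2, EGTA, NaCl, CHAPS and 2 mM DTT. Reaction started with 50 μM PIP2 and 25 μM ATP, 1 h at room temperature. Luminescence was read, with ADP-Glo detection reagent added for β and γ; inhibition is the mean of two tests.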

[3] = molecular target: PI3Kδ (Homo sapiens (Human), UniProt O00329); assay: PI3Kδ enzyme activity inhibition IC50 evaluation assay; format: biochemical; conditions: luminescence, 25 μM ATP, 50 μM PIP2, 2 hrs room temperature
Sequence of PI3Kδ (O00329 whole entry): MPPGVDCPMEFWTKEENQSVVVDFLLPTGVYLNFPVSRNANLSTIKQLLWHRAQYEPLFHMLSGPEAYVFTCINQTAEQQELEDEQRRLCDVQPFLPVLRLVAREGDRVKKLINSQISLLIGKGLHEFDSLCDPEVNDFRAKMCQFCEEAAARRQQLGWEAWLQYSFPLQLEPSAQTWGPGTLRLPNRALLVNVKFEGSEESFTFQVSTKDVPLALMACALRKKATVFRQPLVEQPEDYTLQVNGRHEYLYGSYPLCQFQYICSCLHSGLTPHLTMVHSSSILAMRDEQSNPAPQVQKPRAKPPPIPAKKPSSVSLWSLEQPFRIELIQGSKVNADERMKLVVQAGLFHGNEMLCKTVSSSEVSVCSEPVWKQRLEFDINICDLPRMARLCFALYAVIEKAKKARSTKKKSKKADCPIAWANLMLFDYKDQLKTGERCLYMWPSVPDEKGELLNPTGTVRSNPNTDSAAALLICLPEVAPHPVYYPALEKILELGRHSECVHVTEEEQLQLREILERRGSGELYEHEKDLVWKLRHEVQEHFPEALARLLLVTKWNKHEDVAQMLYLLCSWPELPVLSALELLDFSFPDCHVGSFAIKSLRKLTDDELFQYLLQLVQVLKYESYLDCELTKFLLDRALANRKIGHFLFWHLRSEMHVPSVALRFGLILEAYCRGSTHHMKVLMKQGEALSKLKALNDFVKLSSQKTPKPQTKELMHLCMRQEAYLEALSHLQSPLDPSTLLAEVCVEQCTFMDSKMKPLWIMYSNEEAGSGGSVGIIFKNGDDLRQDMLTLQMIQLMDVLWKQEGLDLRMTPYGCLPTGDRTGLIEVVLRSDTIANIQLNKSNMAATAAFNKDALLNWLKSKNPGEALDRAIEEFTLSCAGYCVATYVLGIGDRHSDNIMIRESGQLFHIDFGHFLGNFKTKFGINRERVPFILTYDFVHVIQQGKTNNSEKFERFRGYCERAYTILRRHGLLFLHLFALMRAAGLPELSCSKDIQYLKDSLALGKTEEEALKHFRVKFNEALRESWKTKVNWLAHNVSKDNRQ
Sequence of PI3Kδ (P27986 whole entry partner): as the sequence (P27986 whole entry partner) above
In short: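 Enzyme was preincubated with compound dilutions at 1% DMSO final in 50 mM HEPES pH 7.5, 3 mM MgCl2, 1 mM EGTA, 100 mM NaCl, 0.03% CHAPS, 2 mM DTT. Activity was read by luminescence, and inhibition rate is the mean of two tests.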

[4] = molecular target: PI3Kβ (Homo sapiens (Human), UniProt P42338); assay: PI3Kβ enzyme activity inhibition IC50 evaluation assay; format: biochemical; conditions: ratio PI3Kβ vs PI3Kδ
Sequence of PI3Kβ (P42338 whole entry): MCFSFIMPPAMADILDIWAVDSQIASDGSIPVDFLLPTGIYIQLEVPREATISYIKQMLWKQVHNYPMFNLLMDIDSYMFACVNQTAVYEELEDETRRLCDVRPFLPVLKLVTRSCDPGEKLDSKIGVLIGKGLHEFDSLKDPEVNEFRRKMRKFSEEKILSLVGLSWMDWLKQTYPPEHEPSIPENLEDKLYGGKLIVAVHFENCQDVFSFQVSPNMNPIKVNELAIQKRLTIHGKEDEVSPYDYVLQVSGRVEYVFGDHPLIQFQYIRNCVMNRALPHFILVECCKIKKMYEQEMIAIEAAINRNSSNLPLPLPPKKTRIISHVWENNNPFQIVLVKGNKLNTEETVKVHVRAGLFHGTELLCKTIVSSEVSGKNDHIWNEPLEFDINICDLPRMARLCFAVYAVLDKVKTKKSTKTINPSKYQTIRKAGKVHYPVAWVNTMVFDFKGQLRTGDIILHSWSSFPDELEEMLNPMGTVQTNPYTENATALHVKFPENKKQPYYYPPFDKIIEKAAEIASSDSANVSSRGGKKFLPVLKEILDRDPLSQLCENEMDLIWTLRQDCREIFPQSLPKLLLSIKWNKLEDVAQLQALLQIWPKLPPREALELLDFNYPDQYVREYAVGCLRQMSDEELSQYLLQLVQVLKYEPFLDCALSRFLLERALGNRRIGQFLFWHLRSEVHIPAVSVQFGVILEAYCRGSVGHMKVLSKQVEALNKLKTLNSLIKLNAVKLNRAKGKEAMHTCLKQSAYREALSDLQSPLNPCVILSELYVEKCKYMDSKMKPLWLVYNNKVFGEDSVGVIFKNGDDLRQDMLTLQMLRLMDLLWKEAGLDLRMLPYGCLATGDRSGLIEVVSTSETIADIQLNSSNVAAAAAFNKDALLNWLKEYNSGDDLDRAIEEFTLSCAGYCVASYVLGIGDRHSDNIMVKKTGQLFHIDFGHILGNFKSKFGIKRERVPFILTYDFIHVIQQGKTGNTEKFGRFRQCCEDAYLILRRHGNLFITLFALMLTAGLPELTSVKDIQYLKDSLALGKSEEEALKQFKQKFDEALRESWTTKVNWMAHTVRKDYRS
Sequence of PI3Kβ (P27986 whole entry partner): as the sequence (P27986 whole entry partner) above
Method: as §1, §2

[5] = tested on: Raji cells; assay: Inhibition of TNF-α generation of human Raji cell induced by human IgM; format: cell-based; conditions: 10 μg/ml IgM stimulation, 24 hrs, ELISA
Method: Screening Test for a Drug on Inhibiting TNF-α Generation of Human Raji Cell Induced by Human IgM
• 1. Raji cell lines (source of human Burkitt's lymphoma) were employed. • 2. 1×10^5/well Raji cells were plated onto a 96-well cell culture plate. • 3. Compounds to be screened were diluted to the corresponding test concentrations and added into the cell culture system 30 minutes before IgM stimulation. • 4. 10 μg/ml IgM monoclonal antibody was added into the cell culture system to stimulate the cells generating TNF-α. • 5. 24 hrs later, the amount of TNF-α generated by the cell system was measured by ELISA method. • 6.

Sequence of PI3Kγ (P48736 whole entry): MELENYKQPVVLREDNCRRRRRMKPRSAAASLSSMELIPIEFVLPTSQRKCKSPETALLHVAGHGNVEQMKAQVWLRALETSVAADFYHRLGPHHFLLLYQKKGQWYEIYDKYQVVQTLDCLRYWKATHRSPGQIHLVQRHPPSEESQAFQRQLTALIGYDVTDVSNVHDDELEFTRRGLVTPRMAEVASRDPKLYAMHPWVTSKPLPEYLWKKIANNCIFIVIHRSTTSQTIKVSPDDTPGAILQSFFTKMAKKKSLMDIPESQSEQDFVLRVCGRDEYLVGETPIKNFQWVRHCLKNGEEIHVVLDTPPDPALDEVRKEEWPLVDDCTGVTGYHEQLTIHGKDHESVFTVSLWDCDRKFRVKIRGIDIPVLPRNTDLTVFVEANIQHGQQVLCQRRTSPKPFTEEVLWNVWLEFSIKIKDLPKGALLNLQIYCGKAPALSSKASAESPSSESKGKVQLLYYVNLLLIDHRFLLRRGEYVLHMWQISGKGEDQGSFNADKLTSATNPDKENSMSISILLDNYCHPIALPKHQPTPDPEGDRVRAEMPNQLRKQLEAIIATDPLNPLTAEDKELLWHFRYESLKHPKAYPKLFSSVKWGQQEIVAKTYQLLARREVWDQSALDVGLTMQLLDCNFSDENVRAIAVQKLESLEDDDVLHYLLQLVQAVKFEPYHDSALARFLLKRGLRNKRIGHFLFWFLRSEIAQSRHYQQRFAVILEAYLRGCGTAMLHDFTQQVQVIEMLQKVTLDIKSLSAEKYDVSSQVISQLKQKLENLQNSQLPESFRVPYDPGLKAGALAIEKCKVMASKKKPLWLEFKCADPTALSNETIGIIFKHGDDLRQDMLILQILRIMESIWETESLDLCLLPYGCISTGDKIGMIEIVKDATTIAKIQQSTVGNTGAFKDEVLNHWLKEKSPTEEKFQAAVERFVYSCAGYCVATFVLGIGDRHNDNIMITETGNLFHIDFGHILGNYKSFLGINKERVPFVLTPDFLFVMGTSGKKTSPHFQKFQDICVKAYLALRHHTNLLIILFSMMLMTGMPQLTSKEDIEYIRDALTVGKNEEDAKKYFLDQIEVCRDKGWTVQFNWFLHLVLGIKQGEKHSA

Row | SMILES | γ/δ selectivity [1] | α/δ selectivity [2] | IC50 [3] | β/δ selectivity [4] | IC50 [5]
1 | CC(C)(O)C1CCN(Cc2csc3c(-c4cccc5[nH]ccc45)nc(N4CCOCC4)nc23)CC1 [Compound 4] | >282 | >282 | 35.4 nM | >282 | –
2 | Cc1sc2c(-c3cccc4[nH]ccc34)nc(N3CCOCC3)nc2c1CN1CCN(C(=O)CO)CC1 [Compound 8] | 57 | 90 | 72 nM | 27 | –
3 | COc1ncc(-c2nc(N3CCOCC3)nc3c(CN4CCN(C)CC4)c(C)sc23)cc1NS(C)(=O)=O [Compound 65] | >571 | 174 | 17.5 nM | 94 | 15.4 nM
4 | COc1ncc(-c2nc(N3CCOCC3)nc3c(CN4CCC(C(C)(C)OC)CC4)c(C)sc23)cc1NS(C)(=O)=O [Compound 78] | >1298 | 302 | 7.7 nM | 18 | 10.6 nM
5 | COc1ncc(-c2nc(N3CCOCC3)nc3c(CN4CCC(OC)CC4)c(C)sc23)cc1NS(C)(=O)=O [Compound 83] | >840 | 257 | 11.9 nM | 24 | 6.7 nM
6 | COc1ncc(-c2nc(N3CCOCC3)nc3c(CN4CCC(C(C)(C)F)CC4)c(C)sc23)cc1NS(C)(=O)=O [Compound 85] | >1162 | 401 | 8.6 nM | 69 | 39.1 nM
7 | COc1ncc(-c2nc(N3CCOCC3)nc3c(CN4CCCCC4)c(C)sc23)cc1NS(C)(=O)=O [Compound 86] | 402 | 136 | 12 nM | 25 | –
8 | COc1ncc(-c2nc(N3CCOCC3)nc3c(CN4CCN(CC(F)(F)F)CC4)c(C)sc23)cc1NS(C)(=O)=O [Compound 87] | 498 | 204 | 12.5 nM | 45 | 41.6 nM
9 | COc1ncc(-c2nc(N3CCOCC3)nc3c(CN4CCC(C(C)C)CC4)c(C)sc23)cc1NS(C)(=O)=O [Compound 88] | 1202 | 548 | 5.8 nM | 73 | 6.1 nM
10 | COc1ncc(-c2nc(N3CCOCC3)nc3c(CN4CCC(N(C)C(C)C)CC4)c(C)sc23)cc1NS(C)(=O)=O [Compound 95] | 532 | 157 | 6.5 nM | 167 | 1.1 nM
11 | COc1ncc(-c2nc(N3CCOCC3)nc3c(CN4CCC(C)(C)CC4)c(C)sc23)cc1NS(C)(=O)=O [Compound 99] | 244 | 152 | 34 nM | 24 | –
12 | COc1ncc(-c2nc(N3CCOCC3)nc3c(CN4CCC(C)CC4)c(C)sc23)cc1NS(C)(=O)=O [Compound 101] | 482 | 390 | 12 nM | 29 | 32.6 nM
13 | COc1ncc(-c2nc(N3CCOCC3)nc3c(CN4CCCC4)c(C)sc23)cc1NS(C)(=O)=O [Compound 102] | 200 | 146 | 9.3 nM | 16 | –

More lines, now with the values ahead:

Row | γ/δ selectivity [1] | α/δ selectivity [2] | IC50 [3] | β/δ selectivity [4] | IC50 [5] | SMILES
14 | – | 176 | 8.4 nM | – | 9.3 nM | CCOC1CCN(Cc2c(C)sc3c(-c4cnc(OC)c(NS(C)(=O)=O)c4)nc(N4CCOCC4)nc23)CC1 [Compound 103]
15 | 377 | 159 | 4.3 nM | 19 | – | COc1ncc(-c2nc(N3CCOCC3)nc3c(CN4CCC5(CC4)OCCO5)c(C)sc23)cc1NS(C)(=O)=O [Compound 104]
16 | >392 | 129 | 25.5 nM | 72 | – | COc1ncc(-c2nc(N3CCOCC3)nc3c(CN4CCC5(CC4)CNC5)c(C)sc23)cc1NS(C)(=O)=O [Compound 106]
17 | 262 | 78 | 13 nM | 6 | – | COc1ncc(-c2nc(N3CCOCC3)nc3c(CN4CCC(O)CC4)c(C)sc23)cc1NS(C)(=O)=O [Compound 108]
18 | 1296 | 251 | 3.9 nM | 723 | – | COc1ncc(-c2nc(N3CCOCC3)nc3c(CN4CCN(C(C)(C)C)CC4)c(C)sc23)cc1NS(=O)(=O)C1CC1 [Compound 109]
19 | 1112 | 203 | 4.1 nM | 275 | 3.3 nM | CCN(CC)C1CCN(Cc2c(C)sc3c(-c4cnc(OC)c(NS(C)(=O)=O)c4)nc(N4CCOCC4)nc23)CC1 [Compound 110]
20 | 611 | 108 | 7.6 nM | 126 | 1.1 nM | COc1ncc(-c2nc(N3CCOCC3)nc3c(CN4CCC(N5CCCC5)CC4)c(C)sc23)cc1NS(C)(=O)=O [Compound 112]
21 | – | 192 | 16 nM | – | 33.7 nM | COc1ncc(-c2nc(N3CCOCC3)nc3c(CN4CC(N(C)C)C4)c(C)sc23)cc1NS(C)(=O)=O [Compound 121]
22 | – | 170 | 4.7 nM | – | 3.9 nM | COc1ncc(-c2nc(N3CCOCC3)nc3c(CN4CCC(N5CCC[C@H]5CO)CC4)c(C)sc23)cc1NS(C)(=O)=O [Compound 126]
23 | – | 38 | 5.8 nM | – | 1.5 nM | COc1ncc(-c2nc(N3CCOCC3)nc3c(CN4CCC(N5CCC[C@@H]5C)CC4)c(C)sc23)cc1NS(C)(=O)=O [Compound 127]
24 | 567 | 225 | 4.6 nM | 140 | 3.3 nM | COc1ncc(-c2nc(N3CCOCC3)nc3c(CN4CCC(N5CCCCC5)CC4)c(C)sc23)cc1NS(C)(=O)=O [Compound 147]
25 | 587 | 280 | 4.7 nM | 110 | 7 nM | COc1ncc(-c2nc(N3CCOCC3)nc3c(CN4CCC(N5CCC5)CC4)c(C)sc23)cc1NS(C)(=O)=O [Compound 148]
26 | 221 | 39 | 9.3 nM | 15 | 8.6 nM | COc1ncc(-c2nc(N3CCOCC3)nc3c(CN4CCC(N5CCCCC5=O)CC4)c(C)sc23)cc1NS(C)(=O)=O [Compound 150]
27 | >909 | 42 | 11 nM | 418 | 0.6 nM | COc1ncc(-c2nc(N3CCOCC3)nc3c(OC4CCC(N5CCCCC5)CC4)c(C)sc23)cc1NS(C)(=O)=O (stereo not shown) [Compound 153]
